Test results taken from ChEMBL document CHEMBL1157733, “Isolation, structure, and bioactivities of abiesadines A-Y, 25 new diterpenes from Abies georgei Orr” (Bioorg Med Chem, 2010).
In brackets after ≈: the same amount, converted by molar mass.

Experiments:
[1] = Inhibition of TNF-alpha-induced NF-kappaB activity in human pNF-kappaB-luc-293 cells; type: cell-based; conditions: HEK293
[2] = system: RAW264.7; assay: Antiinflammatory activity in mouse RAW264.7 cells assessed as inhibition of LPS-induced NO release; type: functional, cell-based
[3] = Antiproliferative activity against human QGY7703 cells; type: functional, cell-based; conditions: QGY-7703
[4] = system: LoVo; assay: Antiproliferative activity against human LoVo cells; type: functional, cell-based

SMILES | IC50 [1] [µg/mL] | IC50 [2] [µg/mL] | IC50 [3] [µg/mL] | IC50 [4] [µg/mL]
CC(C)(O)c1ccc2c(c1)[C@H](O)C[C@H]1[C@](C)(C(=O)O)CCC[C@]21C | > 100 | > 100 | > 25 | > 25
C=C[C@@](C)(O)CC[C@@H]1[C@@]2(C)CCCC(C)(C)[C@@H]2CC[C@@]1(C)O |  |  | > 25 | 13 (≈ 42.1 µM)
CC(C)c1cc2c(cc1O)[C@@]1(C)CCC[C@@](C)(C(=O)O)[C@@H]1CC2 | > 100 | 63 (≈ 199 µM) | > 25 | > 25
C/C(=C\CO)CCC1[C@](C)(O)CC[C@H]2C(C)(C)CCC[C@]12C (some centres undefined) | > 100 | > 100 | > 25 | > 25
C=C[C@@](C)(O)[C@H]1CC2[C@@]3(C)CCCC(C)(C)C3CC[C@@]2(C)O1 (some centres undefined) | 8.7 (≈ 28.4 µM) | 21.6 (≈ 70.5 µM) | 15.7 (≈ 51.2 µM) | 23.1 (≈ 75.4 µM)
CC(C)[C@]12C=C3CC[C@H]4[C@](C)(C(=O)O)CCC[C@]4(C)[C@@]3(CC1)OO2 | > 100 | > 100 | > 25 | > 25
CC(C)C1=CC2=CC[C@H]3[C@](C)(COC(=O)CCC(=O)O)CCC[C@]3(C)[C@H]2CC1 | > 100 | > 100 | > 25 | > 25
CC(C)(O)C1=CC2=CC[C@@H]3[C@](C)(CCC[C@@]3(C)C(=O)O)[C@H]2CC1=O | > 100 | > 100 | > 25 | > 25
CC(C)c1ccc2c(c1)C(=O)C[C@H]1[C@](C)(C(=O)O)CCC[C@]21C | > 100 | > 100 | 10.2 (≈ 32.4 µM) | > 25
CC(C)(O)c1ccc2c(c1)C(=O)C[C@H]1[C@](C)(C(=O)O)CCC[C@]21C | > 100 | 44 (≈ 133 µM) | > 25 | > 25
CC(C)c1ccc2c(c1)[C@@H](O)C[C@H]1[C@](C)(CO)CCC[C@]21C | > 100 | > 100 | > 25 | > 25
CC(C)(O)c1ccc2c(c1)CC[C@H]1[C@](C)(C(=O)O)CCC[C@]21C | > 100 | 76.4 (≈ 241 µM) | > 25 | > 25
CC(C)c1ccc2c(c1)C(=O)C[C@H]1[C@](C)(CO)CCC[C@]21C | > 100 | > 100 | > 25 | > 25
CC(C)c1ccc2c(c1)CC[C@H]1[C@](C)(COC(=O)CCC(=O)O)CCC[C@]21C | > 100 | > 100 | > 25 | > 25
CC(C)c1ccc2c(c1)[C@H](O)C[C@H]1[C@](C)(CO)CCC[C@]21C | > 100 | > 100 | > 25 | 9.2 (≈ 30.4 µM)
CC(C)(O)c1ccc2c(c1)CC[C@H]1[C@](C)(CO)CCC[C@]21C | > 100 | > 100 | > 25 | > 25
CC(C)[C@@]12C=C3CC[C@H]4[C@](C)(C(=O)O)CCC[C@]4(C)[C@]3(CC1)OO2 | > 100 | > 100 | > 25 | > 25
C=C/C(C)=C\CC1[C@](C)(O)CC[C@H]2C(C)(C)CCC[C@]12C (some centres undefined) | > 100 | > 100 | 25 (≈ 86.1 µM) | 20.3 (≈ 69.9 µM)
CC(C)c1ccc2c(c1)[C@H](O)C[C@H]1[C@](C)(C(=O)O)CCC[C@]21C | > 100 | > 100 | > 25 | > 25
CC(C)(O)c1ccc2c(c1)[C@@H](O)C[C@H]1[C@](C)(C(=O)O)CCC[C@]21C | > 100 | > 100 | > 25 | > 25
CC(C)c1ccc2c(c1)[C@@H](O)C[C@H]1[C@](C)(C(=O)O)CCC[C@]21C | > 100 | > 100 | > 25 | > 25
CC(C)/C(C=O)=C\C[C@H]1C(=O)CC[C@@H]2[C@]1(C)CCC[C@@]2(C)C(=O)O [ABIESADINE A] | > 100 | > 100 | > 25 | > 25
CC(C)c1ccc(O)c(CC[C@@H]2[C@@](C)(O)CCC[C@@]2(C)C(=O)O)c1 [ABIESADINE B] | > 100 | > 100 | > 25 | > 25
CC(C)[C@]12O[C@H]1CC1[C@@]3(C)CCC[C@@](C)(C(=O)O)[C@@H]3CC[C@@]1(O)[C@H]2O (some centres undefined) [ABIESADINE C] | > 100 | > 100 | > 25 | > 25
CC(C)[C@]12CC[C@@]3(O1)[C@@]1(C)CCC[C@@](C)(C(=O)O)[C@@H]1CC[C@]3(O)[C@H]2O [ABIESADINE D] | > 100 | > 100 | > 25 | > 25

SMILES | IC50 [1] [µg/mL] | IC50 [2] [µg/mL] | IC50 [3] [µg/mL] | IC50 [4] [µg/mL]
CC(C)C1=CC[C@H]2C(=C1)C(=O)C[C@@H]1[C@]2(C)CCC[C@@]1(C)C(=O)O [ABIESADINE E] | > 100 | > 100 | > 25 | > 25
CC(C)c1ccc2c(c1)[C@H](O)C[C@H]1[C@](C)(COC(=O)CCC(=O)O)CCC[C@]21C [ABIESADINE F] | > 100 | > 100 | > 25 | > 25
CO[C@@H]1C[C@H]2[C@](C)(COC(=O)CCC(=O)O)CCC[C@]2(C)c2ccc(C(C)C)cc21 [ABIESADINE G] | > 100 | > 100 | > 25 | > 25
COC(=O)CCC(=O)OC[C@]1(C)CCC[C@]2(C)c3ccc(C(C)C)cc3[C@H](O)C[C@@H]12 [ABIESADINE H] | > 100 | 83.4 (≈ 200 µM) | > 25 | > 25
CC(C)(O)c1ccc2c(c1)CC[C@H]1[C@](C)(COC(=O)CCC(=O)O)CCC[C@]21C [ABIESADINE I] | > 100 | > 100 | > 25 | > 25
COC(C)(C)c1ccc2c(c1)CC[C@H]1[C@](C)(COC(=O)CCC(=O)O)CCC[C@]21C [ABIESADINE J] | > 100 | > 100 | > 25 | > 25
COC(=O)CCC(=O)OC[C@]1(C)CCC[C@]2(C)c3ccc(C(C)(C)O)cc3CC[C@@H]12 [ABIESADINE K] | > 100 | 52.1 (≈ 125 µM) | > 25 | > 25
CC(C)(O)c1ccc2c(c1)[C@H](O)C[C@H]1[C@](C)(COC(=O)CCC(=O)O)CCC[C@]21C [ABIESADINE L] | > 100 | > 100 | > 25 | > 25
COC(C)(C)c1ccc2c(c1)[C@H](O)C[C@H]1[C@](C)(COC(=O)CCC(=O)O)CCC[C@]21C [ABIESADINE M] | > 100 | > 100 | > 25 | > 25
COC(C)(C)c1ccc2c(c1)CC[C@H]1[C@](C)(C(=O)O)CCC[C@]21C [ABIESADINE N] | > 100 | > 100 | > 25 | > 25
COC(C)(C)c1ccc2c(c1)[C@H](O)C[C@H]1[C@](C)(C(=O)O)CCC[C@]21C [ABIESADINE O] | > 100 | > 100 | > 25 | > 25
CCOC(C)(C)c1ccc2c(c1)CC[C@H]1[C@](C)(C(=O)O)CCC[C@]21C [ABIESADINE P] | > 100 | 94.1 (≈ 273 µM) | > 25 | > 25
CC(C)c1ccc2c(c1)C(=O)C[C@H]1[C@](C)(COC(=O)CCC(=O)O)CCC[C@]21C [ABIESADINE Q] | > 100 | > 100 | > 25 | > 25
CC(C)(O)c1ccc2c(c1)C(=O)C[C@H]1[C@](C)(COC(=O)CCC(=O)O)CCC[C@]21C [ABIESADINE R] | > 100 | > 100 | > 25 | > 25
COC(=O)CCC(=O)OC[C@]1(C)CCC[C@]2(C)c3ccc(C(C)(C)O)cc3C(=O)C[C@@H]12 [ABIESADINE S] | > 100 | 49 (≈ 114 µM) | > 25 | > 25
CC(C)[C@]12C=C3CC[C@H]4[C@](C)(COC(=O)CCC(=O)O)CCC[C@]4(C)[C@@]3(CC1)OO2 [ABIESADINE W] | > 100 | > 100 | > 25 | > 25
C=C[C@@](C)(O)CCC1C(=C)CC[C@H]2[C@](C)(COC(=O)CCC(=O)O)CCC[C@]12C (some centres undefined) [ABIESADINE X] | > 100 | > 100 | > 25 | > 25
C=C[C@@](C)(O)CC[C@H]1C(=C)CC[C@H]2[C@](C)(COC(=O)CCC(=O)OC)CCC[C@]12C [ABIESADINE Y] | 22.4 (≈ 53.3 µM) | 48.5 (≈ 115 µM) | > 25 | 10.6 (≈ 25.2 µM)
CC(C)C1=CC2=CC[C@@H]3[C@](C)(CCC[C@@]3(C)C(=O)O)[C@H]2CC1 [ABIETIC ACID] | > 100 | > 100 | > 25 | > 25
CC(C)c1ccc2c(c1)CC[C@H]1[C@](C)(C(=O)O)CCC[C@]21C [DEHYDROABIETIC ACID] | > 100 | 42.7 (≈ 142 µM) | > 25 | > 25
COc1cccc2c1C(=O)c1c(O)c3c(c(O)c1C2=O)C[C@@](O)(C(=O)CO)C[C@@H]3O[C@H]1C[C@H](N)[C@H](O)[C@H](C)O1 [DOXORUBICIN] |  |  | 0.42 (≈ 0.773 µM) | 0.55 (≈ 1.01 µM)
C=C[C@@](C)(O)CC[C@H]1C(=C)CC[C@H]2C(C)(C)CCC[C@]12C [MANOOL] | > 100 | 11 (≈ 37.9 µM) | > 25 | > 25
N=C(N)NN [PIMAGEDINE] |  | 3.3 (≈ 44.5 µM) |  | 
CC(C)c1ccc2c(c1)CC[C@H]1[C@](C)(CO)CCC[C@]21C [POMIFERIN A] | > 100 | > 100 | > 25 | 9.2 (≈ 32.1 µM)
